Reference: US20250129067A1 (Progentos Therapeutics, Inc., priority 2021, published 2025)

Key:
[1] = system: Oligodendrocyte progenitor cells (OPCs); assay: In vitro OPC differentiation assay, GPR17 expression (immunocytochemistry); conditions: 3 μM (10× concentration, final 0.3 μM); 72 hours; fold change over vehicle
[2] = biological target: PDGFRα (Homo sapiens (Human), UniProt P16234); assay: PDGFRα kinase enzyme assay (Promega PDGFRα Kinase Enzyme System, ADP-Glo); type: biochemical; conditions: 11-point dose response, 10,000 nM to 0.169 nM; 150 uM ATP; BLQ = below limit of quantitation; read-out: IC50 Values on PDGFRα Kinase Inhibition, IC50
Chain of PDGFRα (P16234 24-1089): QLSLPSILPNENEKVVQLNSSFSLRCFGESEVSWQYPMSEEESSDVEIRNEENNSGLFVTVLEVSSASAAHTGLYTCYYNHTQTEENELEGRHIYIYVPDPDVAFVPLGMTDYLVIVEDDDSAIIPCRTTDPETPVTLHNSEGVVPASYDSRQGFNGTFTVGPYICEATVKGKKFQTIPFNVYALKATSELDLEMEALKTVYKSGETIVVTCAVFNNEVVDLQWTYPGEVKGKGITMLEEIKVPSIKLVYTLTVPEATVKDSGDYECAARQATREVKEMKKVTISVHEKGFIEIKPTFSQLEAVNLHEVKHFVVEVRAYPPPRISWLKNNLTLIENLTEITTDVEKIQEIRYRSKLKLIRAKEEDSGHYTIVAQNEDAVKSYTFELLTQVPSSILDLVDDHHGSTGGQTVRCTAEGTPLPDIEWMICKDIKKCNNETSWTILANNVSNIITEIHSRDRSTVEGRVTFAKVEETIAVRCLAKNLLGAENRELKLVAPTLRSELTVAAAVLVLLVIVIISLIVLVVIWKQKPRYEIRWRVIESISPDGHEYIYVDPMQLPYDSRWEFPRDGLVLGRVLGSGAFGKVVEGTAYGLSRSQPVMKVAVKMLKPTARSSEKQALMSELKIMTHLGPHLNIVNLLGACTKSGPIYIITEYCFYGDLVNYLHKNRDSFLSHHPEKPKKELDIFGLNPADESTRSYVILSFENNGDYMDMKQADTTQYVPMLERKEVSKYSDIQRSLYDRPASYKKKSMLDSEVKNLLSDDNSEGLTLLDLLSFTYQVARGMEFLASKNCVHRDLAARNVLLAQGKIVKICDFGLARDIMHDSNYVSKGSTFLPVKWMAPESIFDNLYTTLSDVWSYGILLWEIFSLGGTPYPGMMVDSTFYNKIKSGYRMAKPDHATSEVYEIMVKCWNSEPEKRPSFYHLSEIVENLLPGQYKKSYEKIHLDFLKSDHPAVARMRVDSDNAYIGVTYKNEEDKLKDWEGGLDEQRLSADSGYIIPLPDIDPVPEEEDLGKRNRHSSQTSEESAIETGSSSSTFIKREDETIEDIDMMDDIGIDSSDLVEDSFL
Procedure, shortened: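 Purified PDGFRα protein (20 ng) reacted with test compound per the Promega kinase system protocol. ADP formed was measured by ADP-Glo luminescence against a standard curve, giving IC50.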

Structure (SMILES)	GPR17 Fold Induction (Over Vehicle; 3 μM) [1]	IC50 [2]
Cn1cc(-c2ccc3c(N4CC(Nc5ncc(Cc6ccccc6)cn5)C4)cnn3c2)cn1 [Compound 149, 5-benzyl-N-(1-(6-(1-methyl-1H-pyrazol-4-yl)pyrazolo[1,5-a]pyridin-3-yl)azetidin-3-yl)pyrimidin-2-amine]	8.88	> 10000 nM
Cn1cc(-c2ccc3c(N4CCN(c5ncc(CCc6ccccc6)cn5)CC4)cnn3c2)cn1 [Compound 152, 6-(1-methyl-1H-pyrazol-4-yl)-3-(4-(5-phenethylpyrimidin-2-yl)piperazin-1-yl)pyrazolo[1,5-a]pyridine]	4.33	7190 nM
Cn1cc(-c2ccc3c(N4CCN(c5nsc(Cc6ccccc6)n5)CC4)cnn3c2)cn1 [Compound 154, 5-benzyl-3-(4-(6-(1-methyl-1H-pyrazol-4-yl)pyrazolo[1,5-a]pyridin-3-yl)piperazin-1-yl)-1,2,4-thiadiazole]	13.45	697 nM
Cn1cc(-c2ccc3c(N4CCN(c5nnc(Cc6ccccc6)o5)CC4)cnn3c2)cn1 [Compound 155, 2-benzyl-5-(4-(6-(1-methyl-1H-pyrazol-4-yl)pyrazolo[1,5-a]pyridin-3-yl)piperazin-1-yl)-1,3,4-oxadiazole]	5.02	58.6 nM
Cn1cc(-c2ccc3c(N4CCN(S(=O)(=O)NCc5ccccc5)CC4)cnn3c2)cn1 [Compound 159, N-benzyl-4-[6-(1-methyl-1H-pyrazol-4-yl)pyrazolo[1,5-a]pyridin-3-yl]piperazine-1-sulfonamide]	3.62	450 nM
Cn1cc(-c2ccc3c(N4CCN(S(=O)(=O)CCc5ccccc5)CC4)cnn3c2)cn1 [Compound 160, 6-(1-methyl-1H-pyrazol-4-yl)-3-(4-(phenethylsulfonyl)piperazin-1-yl)pyrazolo[1,5-a]pyridine]	2.80	9680 nM
CN(Cc1ccccc1)C(=O)N1CCN(c2cnn3cc(-c4cnn(C)c4)ccc23)CC1 [Compound 162, N-benzyl-N-methyl-4-(6-(1-methyl-1H-pyrazol-4-yl)pyrazolo[1,5-a]pyridin-3-yl)piperazine-1-carboxamide]	2.90	1480 nM
Cn1cc(-c2ccc3c(N4CCN(c5ncc(CC(O)c6ccccc6)cn5)CC4)cnn3c2)cn1 (stereo not shown) [Compound 164, 2-(2-(4-(6-(1-methyl-1H-pyrazol-4-yl)pyrazolo[1,5-a]pyridin-3-yl)piperazin-1-yl)pyrimidin-5-yl)-1-phenylethan-1-ol]	5.94	784 nM
Cn1cc(-c2ccc3c(N4CCN(c5ncc(CCC(O)c6ccccc6)cn5)CC4)cnn3c2)cn1 (stereo not shown) [Compound 165, 3-(2-(4-(6-(1-methyl-1H-pyrazol-4-yl)pyrazolo[1,5-a]pyridin-3-yl)piperazin-1-yl)pyrimidin-5-yl)-1-phenylpropan-1-ol]	18.42	686 nM
Cn1cc(-c2ccc3c(N4CCN(c5ncc(Oc6ccccc6)cn5)CC4)cnn3c2)cn1 [Compound 166, 6-(1-methyl-1H-pyrazol-4-yl)-3-(4-(5-phenoxypyrimidin-2-yl)piperazin-1-yl)pyrazolo[1,5-a]pyridine]	6.36	3570 nM
CCCCC(O)c1cnc(N2CCN(c3cnn4cc(-c5cnn(C)c5)ccc34)CC2)nc1 (stereo not shown) [Compound 168, 1-(2-(4-(6-(1-methyl-1H-pyrazol-4-yl)pyrazolo[1,5-a]pyridin-3-yl)piperazin-1-yl)pyrimidin-5-yl)pentan-1-ol]	6.43	105 nM
Cn1cc(-c2ccc3c(N4CCN(c5ncc(Cc6ccoc6)cn5)CC4)cnn3c2)cn1 [Compound 169, 3-(4-(5-(furan-3-ylmethyl)pyrimidin-2-yl)piperazin-1-yl)-6-(1-methyl-1H-pyrazol-4-yl)pyrazolo[1,5-a]pyridine]	9.79	825 nM
Cn1cc(-c2ccc3c(N4CCN(c5ncc(Cc6ncco6)cn5)CC4)cnn3c2)cn1 [Compound 170, 2-((2-(4-(6-(1-methyl-1H-pyrazol-4-yl)pyrazolo[1,5-a]pyridin-3-yl)piperazin-1-yl)pyrimidin-5-yl)methyl)oxazole]	3.96	2380 nM
Cn1cc(-c2ccc3c(N4CCN(c5ncc(Cc6cocn6)cn5)CC4)cnn3c2)cn1 [Compound 171, 4-((2-(4-(6-(1-methyl-1H-pyrazol-4-yl)pyrazolo[1,5-a]pyridin-3-yl)piperazin-1-yl)pyrimidin-5-yl)methyl)oxazole]	5.33	> 10000 nM
Cn1cc(-c2ccc3c(N4CCN(c5ncc(Cc6cscn6)cn5)CC4)cnn3c2)cn1 [Compound 172, 4-((2-(4-(6-(1-methyl-1H-pyrazol-4-yl)pyrazolo[1,5-a]pyridin-3-yl)piperazin-1-yl)pyrimidin-5-yl)methyl)thiazole]	4.90	710 nM
Cn1cc(-c2ccc3c(N4CCN(c5ncc(CN6CCc7ccccc76)cn5)CC4)cnn3c2)cn1 [Compound 174, 3-(4-(5-(indolin-1-ylmethyl)pyrimidin-2-yl)piperazin-1-yl)-6-(1-methyl-1H-pyrazol-4-yl)pyrazolo[1,5-a]pyridine]	6.67	306 nM
Cn1cc(-c2ccc3c(N4CCN(c5ncc(Cc6nnco6)cn5)CC4)cnn3c2)cn1 [Compound 180, 2-((2-(4-(6-(1-methyl-1H-pyrazol-4-yl)pyrazolo[1,5-a]pyridin-3-yl)piperazin-1-yl)pyrimidin-5-yl)methyl)-1,3,4-oxadiazole]	4.05	4330 nM
Cn1cc(-c2ccc3c(N4CCN(c5ncc(Cc6nccs6)cn5)CC4)cnn3c2)cn1 [Compound 182, 2-((2-(4-(6-(1-methyl-1H-pyrazol-4-yl)pyrazolo[1,5-a]pyridin-3-yl)piperazin-1-yl)pyrimidin-5-yl)methyl) thiazole]	13.16	6990 nM
Cn1cc(-c2ccc3c(N4CCN(c5ncc(CCCc6ccccc6)cn5)CC4)cnn3c2)cn1 [Compound 183, 6-(1-methyl-1H-pyrazol-4-yl)-3-(4-(5-(3-phenylpropyl)pyrimidin-2-yl)piperazin-1-yl)pyrazolo[1,5-a]pyridine]	5.74	815 nM
Cn1cc(-c2ccc3c(N4CCN(c5ncc(CC6CCCOC6)cn5)CC4)cnn3c2)cn1 (stereo not shown) [Compound 185, 6-(1-methyl-1H-pyrazol-4-yl)-3-(4-(5-((tetrahydro-2H-pyran-3-yl)methyl)pyrimidin-2-yl)piperazin-1-yl)pyrazolo[1,5-a]pyridine]	12.67	510 nM
Cn1cc(-c2ccc3c(N4CCN(c5ncc(S(=O)(=O)c6ccccc6)cn5)CC4)cnn3c2)cn1 [Compound 186, 6-(1-methyl-1H-pyrazol-4-yl)-3-(4-(5-(phenylsulfonyl)pyrimidin-2-yl)piperazin-1-yl)pyrazolo[1,5-a]pyridine]	1.26	> 10000 nM
Cn1cc(-c2ccc3c(N4CCN(c5ncc(Sc6ccccc6)cn5)CC4)cnn3c2)cn1 [Compound 188, 6-(1-methyl-1H-pyrazol-4-yl)-3-(4-(5-(phenylthio)pyrimidin-2-yl)piperazin-1-yl)pyrazolo[1,5-a]pyridine]	6.03	5100 nM
CCCCCc1cnc(N2CCN(c3cnn4cc(-c5cnn(C)c5)ccc34)CC2)nc1 [Compound 190]	6.05	543 nM
Cn1cc(-c2ccc3c(N4CCN(c5ncc(Cn6ccc7ccccc76)cn5)CC4)cnn3c2)cn1 [Compound 191, 3-(4-(5-((1H-indol-1-yl)methyl)pyrimidin-2-yl)piperazin-1-yl)-6-(1-methyl-1H-pyrazol-4-yl)pyrazolo[1,5-a]pyridine]	23.57	287 nM
Cn1cc(-c2ccc3c(N4CCN(c5ncc([C@H](O)[C@@H]6CCCOC6)cn5)CC4)cnn3c2)cn1 [Compound 192, (R)-(2-(4-(6-(1-methyl-1H-pyrazol-4-yl)pyrazolo[1,5-a]pyridin-3-yl)piperazin-1-yl)pyrimidin-5-yl)((R)-tetrahydro-2H-pyran-3-yl)methanol]	14.76	31 nM
Cn1cc(-c2ccc3c(N4CCN(c5ncc([C@@H](O)[C@@H]6CCCOC6)cn5)CC4)cnn3c2)cn1 [Compound 193, (S)-(2-(4-(6-(1-methyl-1H-pyrazol-4-yl)pyrazolo[1,5-a]pyridin-3-yl)piperazin-1-yl)pyrimidin-5-yl)((R)-tetrahydro-2H-pyran-3-yl)methanol]	11.72	69.1 nM
Cn1cc(-c2ccc3c(N4CCN(c5ncc(C(O)C6CCCCO6)cn5)CC4)cnn3c2)cn1 (stereo not shown) [Compound 194, (2-(4-(6-(1-methyl-1H-pyrazol-4-yl)pyrazolo[1,5-a]pyridin-3-yl)piperazin-1-yl)pyrimidin-5-yl)(tetrahydro-2H-pyran-2-yl)methanol]	8.67	195 nM
Cn1cc(-c2ccc3c(N4CCN(C(=O)OCc5ncc(Cl)s5)CC4)cnn3c2)cn1 [Compound 195, (5-chlorothiazol-2-yl)methyl 4-(6-(1-methyl-1H-pyrazol-4-yl)pyrazolo[1,5-a]pyridin-3-yl)piperazine-1-carboxylate]	5.57	1230 nM
Cn1cc(-c2ccc3c(N4CCN(C(=O)OCc5ccc(Cl)s5)CC4)cnn3c2)cn1 [Compound 196, (5-chlorothiophen-2-yl)methyl 4-(6-(1-methyl-1H-pyrazol-4-yl)pyrazolo[1,5-a]pyridin-3-yl)piperazine-1-carboxylate]	5.65	522 nM
